Source: paper PMC5608804, “Stepwise Evolution Improves Identification of Diverse Peptides Binding to a Protein Target” (Scientific Reports, 2017)

Target: T1, streptavidin (Streptomyces avidinii, UniProt P22629)
T1 construct: purchased GE Healthcare (Little Chalfont, UK)
Assay: Cy5-streptavidin binding on HotSpot discovery array, 5-mer L-peptide library
Conditions: 5-mer L-peptide library array, Cy5-streptavidin; from average of three arrays
From the text: To identify hotspot sequences that bind to streptavidin (SA), we bound Cy5-SA to an array library of 2,476,099 5-mer L-peptides synthesized with 19 of 20 natural amino acids (excluding cysteine). The fluorescence signal intensity was aggregated across three independently synthesized arrays; then the 2,047 peptides with a signal-to-background ratio (S/B) >4 were selected. The data was further filtered to select 1,100 peptides for which signal intensities were highly correlated on all 3 arrays (the percentage of mean deviation to mean was <10%, see Supplementary dataset Table 2A). Most selected sequences (1,019 of 1,100) contained HP, PQ, or PM sequences: their presence would be expected in the well-known HPQ and HPM streptavidin binders[13]–[18].
The comprehensive peptide library included 2,476,099 5-mer peptides synthesized in a single copy with 19 of 20 L- or D-amino acids (excluding cysteine). Libraries were flanked on both N- and C-termini by linkers of 1 or 3 amino acids using a 3:1 glycine-serine mixture.
Cy5™-streptavidin (Cy5-SA) was purchased from GE Healthcare (Little Chalfont, UK). Freshly deprotected arrays were used in each experiment. Streptavidin binding to all arrays was performed with 0.5 µg/ml Cy5-SA either in binding buffer containing 10 mM Tris-HCl (pH 7.4), 1% alkali-soluble casein (EMD Millipore), 0.05% Tween-20 or in 10 mM Tris-HCl (pH 7.4), 4% BSA (Roche, Basel, Switzerland), 0.05% Tween-20 in a 30 mL PAP Jar container (Evergreen Scientific, Vernon, CA) overnight at 4° C. After incubation, arrays were washed in 20 mM Tris-HCl (pH 7.8), 0.2 M NaCl, 1% SDS or 1X TBS (pH 7.4) for 30 sec followed by a 1 min wash in water, and then dried by spinning in a microcentrifuge equipped with an array holder.
Cy5 fluorescence intensity of the arrays was measured with an MS200 scanner (Roche NimbleGen, Madison, WI) at resolution 2 µm, wavelength 635 nm, gain 25%, and laser intensity 100%. Cy5 signal intensities were extracted using Image Extraction Software (Roche NimbleGen). Data pre-processing, normalization, and statistical tests were performed using the language R. Data visualization and analysis was performed with the Spotfire 6.5.0 (Tibco, Boston, MA) software platform. Distance analysis and principle component analysis of distance matrices were performed with the R package PEPLIB[19].

T1 sequence (P22629 25-183): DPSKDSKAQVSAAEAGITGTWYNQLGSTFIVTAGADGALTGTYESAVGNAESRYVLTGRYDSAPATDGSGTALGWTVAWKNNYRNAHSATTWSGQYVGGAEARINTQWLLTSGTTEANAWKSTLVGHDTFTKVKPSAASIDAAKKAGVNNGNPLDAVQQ

Substance	S/B (signal to background ratio)
QQHPQ	136.6
VSHPQ	129.8
HPQQS	19.2
RHPQF	125.0
ETHPQ	49.0
YLHPQ	152.2
VHHPM	54.5
GFHPQ	181.0
HPQVE	19.8
IVHPM	23.5
HPQAA	43.7
KPHPM	21.9
AHPMS	27.6
EWHPM	38.1
HPQFG	141.0
SQHPM	50.2
LHPQA	128.0
IKHPM	19.0
LGAYH [L-amino acid 5-mer array peptide]	52.2
PHPMS	30.6
SRHPQ	154.4
YWHPQ	148.0
WHPQF	132.3
PRHPQ	161.5

Substance	S/B (signal to background ratio)
HHPQQ	45.6
TGHPQ	128.8
HPQFR	23.8
GLHPQ	132.8
LGQYH [L-amino acid 5-mer array peptide]	31.1
EHPQS	36.4
NYHPM	52.9
NHPQN	138.1
KHHPM	29.1
SWHPQ	171.5
VLHPM	32.2
RHPMS	30.8
HPQGG	131.5
GHPMV	21.8
HWHPQ	166.7
YIHPQ	131.4
YHPQG	153.3
LIHPQ	120.1
HPQNR	50.5
YHPMN	26.1
MMHPM	48.8
PMHPQ	135.3
MHHPQ	178.1
HPQNI	48.9

Substance	S/B (signal to background ratio)
WHPQT	54.9
RHPQA	134.8
NDHPM	32.0
LAHPQ	168.6
SLHPM	46.4
MAAHF [L-amino acid 5-mer array peptide]	25.6
NMHPQ	136.2
KMHPM	22.0
WMHPQ	194.6
TEHPQ	57.0
LHPMS	22.2
AWHPQ	172.2
IGHPQ	174.2
HPQVF	56.9
SHPQQ	41.4
QPHPM	52.0
HPQGY	53.6
SMHPQ	142.0
IPHPQ	167.5
NHPQG	118.8
HPMFN	39.1
FMHPQ	206.0
HPHPQ	185.1

Same assay, conditions: 5-mer L-peptide library array, Cy5-streptavidin; from the average of three arrays

Substance	S/B (signal to background ratio)
HPQNP	89.0
HPQGN	108.4
FIHPM	68.2
TVHPQ	96.5
DHPQG	77.3
NHPMA	59.8
ADHPQ	69.7
IFHPM	60.0
YHPQH	62.5
QLHPQ	117.5
SHPQG	117.3
MYHPM	89.3
ENHPQ	78.3
HRHPM	61.8
RFHPM	59.2
WHPQH	79.3
QYHPM	82.7
PHPQF	98.8
MKHPQ	84.7
HPQFF	71.6
HPQVA	67.2

Substance	S/B (signal to background ratio)
IVHPQ	94.3
HPQVN	63.9
YHPQM	77.9
GHPMG	65.8
PKHPQ	80.7
FAHPM	90.2
HPQVS	77.3
GEHPQ	63.7
HVHPQ	105.7
RHPQN	86.1
HPQFV	69.2
VQHPQ	114.0
RWHPM	79.7
TIHPQ	92.6
SIHPQ	118.3
LMHPM	66.9
EHPQA	70.0
HPQNY	103.6
LPHPM	58.1
DFHPQ	75.2

Same assay, conditions: 5-mer L-peptide library, from the average of three arrays

Substance	S/B (signal to background ratio)
FMPHP	5.0
FYNFM [L-amino acid 5-mer array peptide]	4.7
THPMK	4.1
HFPQN	4.1
NWDQV [L-amino acid 5-mer array peptide]	4.6
RHPQL	4.6
PGWAH [L-amino acid 5-mer array peptide]	4.8
HGFPF	4.7
HPMRA	4.8
WRHPH	4.2
GPMPD	4.4

Same assay, conditions: average of three arrays, L-peptide 5-mer library

Substance	S/B (signal to background ratio)
MVAHF [L-amino acid 5-mer array peptide]	6.3
FYNFM [L-amino acid 5-mer array peptide]	4.7
MANHF [L-amino acid 5-mer array peptide]	6.0
LSVYH [L-amino acid 5-mer array peptide]	5.3
LGRYH [L-amino acid 5-mer array peptide]	9.7
LGAYH [L-amino acid 5-mer array peptide]	52.2
YHETH [L-amino acid 5-mer array peptide]	6.0
LGQYH [L-amino acid 5-mer array peptide]	31.1
NWDQV [L-amino acid 5-mer array peptide]	4.6
PGWAH [L-amino acid 5-mer array peptide]	4.8
HGFPF	4.7
LGKYH [L-amino acid 5-mer array peptide]	6.7
MAAHF [L-amino acid 5-mer array peptide]	25.6

Same assay, conditions: signal to background ratio; 5-mer L-peptide library array, Cy5-streptavidin

Substance	S/B
MVAHF [L-amino acid 5-mer array peptide]	6.3
HPQPD	6.3
ESHPM	17.2
HPMQG	16.2
HPMYQ	5.7
THPQT	11.0
HPQFK	17.7
MANHF [L-amino acid 5-mer array peptide]	6.0
HPADF	6.3
YHPMF	13.4
HPQAL	10.3
HPMGL	9.0
LSVYH [L-amino acid 5-mer array peptide]	5.3
WHPDW	5.3
LGRYH [L-amino acid 5-mer array peptide]	9.7
PHPMY	12.1
GHPMF	15.1
IHPQW	12.0
MHPMR	10.8
YHETH [L-amino acid 5-mer array peptide]	6.0
PQPDW	5.2
HPMYR	5.9

Substance	S/B
LHPQW	12.4
EAHPM	16.5
RHPMQ	16.4
HPMFH	6.8
LGKYH [L-amino acid 5-mer array peptide]	6.7
HPMYY	8.3
YRGHP	5.3
WHPMT	16.9
HPQPN	5.5
HPMKN	8.2
HPQDG	15.1
HPQRS	15.9
HPMRW	12.6
LHPQT	15.6
DHPQT	8.9
EHPQQ	16.2
HPQQH	12.2
HPQYK	6.3
HPQAI	10.7
HPMAQ	7.2
HPQQQ	10.8
